Test results from ChEMBL document CHEMBL1136937, “Discovery of a potent class I selective ketone histone deacetylase inhibitor with antitumor activity in vivo and optimized pharmacokinetic properties” (J Med Chem, 2009).
≈ marks a conversion by molar mass, not a printed value. One block for each molecule: values may come before it. Calls of active or inactive are those of the source. The calls are words filed in the database; no cut-off is given here.

Tests used:
[1] = Metabolic stability in human liver microsomes assessed as intrinsic clearance at 1 uM after 90 mins; format: ADME, Microsome; conditions: liver microsomes
[2] = Metabolic stability in dog liver microsomes assessed as intrinsic clearance at 1 uM after 90 mins; format: ADME, Canis lupus familiaris, Microsome; conditions: liver microsomes
Histone deacetylase 1 = Histone deacetylase 1 (Homo sapiens, UniProt Q13547)
Description: Inhibition of human C-terminal FLAG-tagged HDAC1 in HEK293 cells

HeLa = experiment: Antiproliferative activity against human P53-deficient HeLa cells after 72 hrs by celltiter-blue cell viability assay; format: functional
[3] = Metabolic stability in rat liver microsomes assessed as intrinsic clearance at 1 uM after 90 mins; format: ADME, Microsome
HCT-116 [4] = experiment: Antiproliferative activity against human P53 expressing HCT116 cells after 72 hrs by celltiter-blue cell viability assay; format: functional
G-401 = experiment: Antiproliferative activity against human G401 cells after 72 hrs by celltiter-blue cell viability assay; format: functional
MCF7 = experiment: Antiproliferative activity against human MCF7 cells after 72 hrs by celltiter-blue cell viability assay; format: functional
[5] = Clearance in Sprague-Dawley rat plasma at 3 mg/kg, iv and 3 mg/kg, po; format: ADME, organism-based
[6] = Toxicity in ip dosed BALB/c nu/nu mouse assessed as maximum tolerated dose; format: organism-based; conditions: in vivo
HCT-116 [7] = experiment: Antitumor activity against human HCT116 cells xenografted BALB/c nu/nu mouse assessed as reduction in tumor growth at 10 mg/kg, ip administered once daily for 5 days per week; format: functional, organism-based; design: dose 10 mg/kg
[8] = molecular target: T1, Protein deacetylase HDAC6 (Homo sapiens, UniProt Q9UBN7)
T1 sequence (Q9UBN7 whole entry): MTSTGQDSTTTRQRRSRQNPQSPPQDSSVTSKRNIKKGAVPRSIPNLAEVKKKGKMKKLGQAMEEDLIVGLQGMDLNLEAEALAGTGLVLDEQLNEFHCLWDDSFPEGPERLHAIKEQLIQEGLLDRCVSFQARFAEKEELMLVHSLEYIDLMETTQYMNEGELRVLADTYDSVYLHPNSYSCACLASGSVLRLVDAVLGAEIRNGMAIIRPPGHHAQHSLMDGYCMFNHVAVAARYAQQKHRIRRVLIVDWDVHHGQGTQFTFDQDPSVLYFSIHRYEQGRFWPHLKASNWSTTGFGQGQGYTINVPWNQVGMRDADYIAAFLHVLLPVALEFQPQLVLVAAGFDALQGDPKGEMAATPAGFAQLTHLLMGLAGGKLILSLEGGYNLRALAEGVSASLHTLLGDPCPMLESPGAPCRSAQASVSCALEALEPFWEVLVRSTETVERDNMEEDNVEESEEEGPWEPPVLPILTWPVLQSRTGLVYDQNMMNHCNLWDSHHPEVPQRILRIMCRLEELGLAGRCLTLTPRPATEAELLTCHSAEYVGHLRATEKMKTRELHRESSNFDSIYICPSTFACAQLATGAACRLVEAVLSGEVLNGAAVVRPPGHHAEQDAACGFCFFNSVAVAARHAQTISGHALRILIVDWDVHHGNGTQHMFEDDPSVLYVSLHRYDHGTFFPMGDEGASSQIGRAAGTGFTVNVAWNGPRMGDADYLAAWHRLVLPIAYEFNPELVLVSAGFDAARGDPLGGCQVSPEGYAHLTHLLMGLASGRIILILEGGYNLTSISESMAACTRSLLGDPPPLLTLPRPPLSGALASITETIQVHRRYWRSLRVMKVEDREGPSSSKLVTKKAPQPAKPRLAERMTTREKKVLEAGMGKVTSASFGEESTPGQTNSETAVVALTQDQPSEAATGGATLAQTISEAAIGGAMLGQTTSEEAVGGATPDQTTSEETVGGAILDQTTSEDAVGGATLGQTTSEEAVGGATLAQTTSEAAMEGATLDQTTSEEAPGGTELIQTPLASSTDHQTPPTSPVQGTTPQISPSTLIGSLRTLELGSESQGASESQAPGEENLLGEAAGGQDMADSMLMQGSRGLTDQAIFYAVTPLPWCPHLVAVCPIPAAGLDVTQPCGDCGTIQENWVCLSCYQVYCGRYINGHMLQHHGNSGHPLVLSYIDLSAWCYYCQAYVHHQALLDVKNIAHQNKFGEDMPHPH
Description: Inhibition of C-terminal FLAG-tagged HDAC6 expressed in mammalian cells

U-937 = experiment: Antiproliferative activity against human U937 cells after 72 hrs by celltiter-blue cell viability assay; format: functional; conditions: U-937, 72 h
[9] = Oral bioavailability in Sprague-Dawley rat at 3 mg/kg; format: ADME, organism-based; conditions: in vivo
[10] = Plasma concentration in Beagle dog at 2 mg/kg, po after 24 hrs; format: ADME, organism-based, Canis lupus familiaris; design: dose 2 mg/kg, route oral
A549 = experiment: Antiproliferative activity against human P53 expressing A549 cells after 72 hrs by celltiter-blue cell viability assay; format: functional; conditions: A549, 72 h
[11] = Volume of distribution at steady state in Sprague-Dawley rat at 3 mg/kg, iv and 3 mg/kg, po; format: ADME, organism-based; conditions: in vivo, read-out: Vdss
[12] = Terminal half life in Beagle dog at 1 mg/kg, iv and 2 mg/kg, po; format: ADME, organism-based, Canis lupus familiaris; conditions: in vivo, read-out: beta t1/2 (converted)
[13] = Solubility in buffered aqueous solution at pH 4.1; format: physicochemical
Mus musculus [14] = experiment: Toxicity in BALB/c nu/nu mouse assessed as adverse effect at 10 mg/kg, ip administered once daily for 5 days per week; format: organism-based; design: dose 10 mg/kg, route intraperitoneal; conditions: in vivo, 120 h
[15] = Clearance in Beagle dog at 1 mg/kg, iv and 2 mg/kg, po; format: ADME, organism-based, Canis lupus familiaris; conditions: in vivo
Histone deacetylase 7 = molecular target: T2, Histone deacetylase 7 (Homo sapiens, UniProt Q8WUI4); experiment: Inhibition of wild type His-tagged HDAC7 catalytic domain T515-L952 expressed in Escherichia coli
T2 sequence (Q8WUI4 whole entry): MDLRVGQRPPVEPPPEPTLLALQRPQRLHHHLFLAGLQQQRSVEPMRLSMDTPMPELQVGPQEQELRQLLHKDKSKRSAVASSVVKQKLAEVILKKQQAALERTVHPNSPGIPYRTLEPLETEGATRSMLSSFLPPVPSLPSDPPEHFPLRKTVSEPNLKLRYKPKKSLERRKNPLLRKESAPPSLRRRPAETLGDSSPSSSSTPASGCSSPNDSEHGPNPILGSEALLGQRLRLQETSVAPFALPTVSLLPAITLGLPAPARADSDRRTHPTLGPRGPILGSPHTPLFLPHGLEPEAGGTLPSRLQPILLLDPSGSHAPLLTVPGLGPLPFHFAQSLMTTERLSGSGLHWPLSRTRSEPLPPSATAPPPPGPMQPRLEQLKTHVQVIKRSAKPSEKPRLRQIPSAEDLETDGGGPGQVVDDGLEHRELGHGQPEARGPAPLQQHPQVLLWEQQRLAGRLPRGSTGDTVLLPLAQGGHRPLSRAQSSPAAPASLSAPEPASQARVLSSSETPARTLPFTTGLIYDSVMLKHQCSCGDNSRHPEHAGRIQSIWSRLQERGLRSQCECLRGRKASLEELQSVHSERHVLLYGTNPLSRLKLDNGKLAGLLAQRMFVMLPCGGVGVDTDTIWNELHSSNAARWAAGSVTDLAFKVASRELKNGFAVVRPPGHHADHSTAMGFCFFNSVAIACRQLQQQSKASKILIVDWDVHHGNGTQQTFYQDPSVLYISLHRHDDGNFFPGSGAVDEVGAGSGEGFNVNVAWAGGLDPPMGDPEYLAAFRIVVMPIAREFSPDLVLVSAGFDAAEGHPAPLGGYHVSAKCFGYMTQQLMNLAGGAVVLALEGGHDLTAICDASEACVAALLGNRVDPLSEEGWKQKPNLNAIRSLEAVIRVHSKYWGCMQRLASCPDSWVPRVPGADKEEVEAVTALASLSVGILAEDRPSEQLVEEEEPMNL

A2780 = experiment: Antiproliferative activity against human A2780 cells after 72 hrs by celltiter-blue cell viability assay; format: functional; conditions: A2780, 72 h
[16] = Plasma concentration in Sprague-Dawley rat at 3 mg/kg, po after 24 hrs; format: ADME, organism-based; design: dose 3 mg/kg, route oral
Cytochrome P450 3A4 [17] = molecular target: T3, Cytochrome P450 3A4 (Homo sapiens, UniProt P08684); experiment: Induction of CYP3A4; format: ADME
[18] = Terminal half life in Sprague-Dawley rat at 3 mg/kg, iv and 3 mg/kg, po; format: ADME, organism-based; conditions: in vivo, read-out: beta t1/2 (converted)
Histone deacetylase 5 = Histone deacetylase 5 (Homo sapiens, UniProt Q9UQL6); experiment: Inhibition of wild type His-tagged HDAC5 catalytic domain T678-L1122 expressed in Escherichia coli
Cytochrome P450 3A4 [19] = molecular target: T3, Cytochrome P450 3A4; experiment: Inhibition of CYP3A4; format: ADME
Mus musculus [20] = experiment: Toxicity in BALB/c nu/nu mouse assessed as body weight loss at 10 mg/kg, ip administered once daily for 5 days per week; format: organism-based; design: dose 10 mg/kg, route intraperitoneal; conditions: in vivo, 120 h
HCT-116 [21] = experiment: Antitumor activity against human HCT116 cells xenografted nude mouse assessed as reduction in tumor growth at […], ip administered once daily for 5 days per week; format: functional, organism-based
[22] = Oral bioavailability in Beagle dog at 2 mg/kg; format: ADME, organism-based, Canis lupus familiaris; conditions: in vivo
Cytochrome P450 2C9 = Cytochrome P450 2C9 (Homo sapiens, UniProt P11712); experiment: Inhibition of CYP2C9; format: ADME
[23] = Volume of distribution at steady state in Beagle dog at 1 mg/kg, iv and 2 mg/kg, po; format: ADME, organism-based, Canis lupus familiaris; conditions: in vivo, read-out: Vdss

Histone deacetylase 1, sequence (Q13547 whole entry): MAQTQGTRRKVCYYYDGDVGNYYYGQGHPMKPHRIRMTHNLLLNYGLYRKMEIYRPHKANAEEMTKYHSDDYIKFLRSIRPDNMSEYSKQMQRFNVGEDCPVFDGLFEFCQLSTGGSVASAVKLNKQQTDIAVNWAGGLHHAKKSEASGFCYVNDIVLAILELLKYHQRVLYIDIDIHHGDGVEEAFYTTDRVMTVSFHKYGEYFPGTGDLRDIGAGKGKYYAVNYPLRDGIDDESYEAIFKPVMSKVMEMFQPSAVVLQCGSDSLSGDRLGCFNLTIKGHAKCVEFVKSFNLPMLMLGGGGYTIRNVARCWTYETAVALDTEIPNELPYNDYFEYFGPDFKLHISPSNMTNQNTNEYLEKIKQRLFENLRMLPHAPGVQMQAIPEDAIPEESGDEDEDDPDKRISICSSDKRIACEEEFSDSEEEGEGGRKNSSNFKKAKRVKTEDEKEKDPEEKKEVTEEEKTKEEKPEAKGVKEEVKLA
T3 sequence (P08684 whole entry): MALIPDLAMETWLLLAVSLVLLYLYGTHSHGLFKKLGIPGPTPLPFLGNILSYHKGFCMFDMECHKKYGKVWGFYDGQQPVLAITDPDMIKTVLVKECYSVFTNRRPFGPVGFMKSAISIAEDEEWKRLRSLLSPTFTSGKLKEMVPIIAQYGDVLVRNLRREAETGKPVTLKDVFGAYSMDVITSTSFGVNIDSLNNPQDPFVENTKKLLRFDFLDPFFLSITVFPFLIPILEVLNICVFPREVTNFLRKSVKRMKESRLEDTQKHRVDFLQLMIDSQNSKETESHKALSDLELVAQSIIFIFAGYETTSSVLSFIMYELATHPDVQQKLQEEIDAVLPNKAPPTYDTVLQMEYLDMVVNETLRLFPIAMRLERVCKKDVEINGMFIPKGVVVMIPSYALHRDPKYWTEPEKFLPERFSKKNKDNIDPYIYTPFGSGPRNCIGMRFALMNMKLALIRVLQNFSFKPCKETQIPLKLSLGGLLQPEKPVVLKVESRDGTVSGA
Histone deacetylase 5, sequence (Q9UQL6 whole entry, the tested form may be a part): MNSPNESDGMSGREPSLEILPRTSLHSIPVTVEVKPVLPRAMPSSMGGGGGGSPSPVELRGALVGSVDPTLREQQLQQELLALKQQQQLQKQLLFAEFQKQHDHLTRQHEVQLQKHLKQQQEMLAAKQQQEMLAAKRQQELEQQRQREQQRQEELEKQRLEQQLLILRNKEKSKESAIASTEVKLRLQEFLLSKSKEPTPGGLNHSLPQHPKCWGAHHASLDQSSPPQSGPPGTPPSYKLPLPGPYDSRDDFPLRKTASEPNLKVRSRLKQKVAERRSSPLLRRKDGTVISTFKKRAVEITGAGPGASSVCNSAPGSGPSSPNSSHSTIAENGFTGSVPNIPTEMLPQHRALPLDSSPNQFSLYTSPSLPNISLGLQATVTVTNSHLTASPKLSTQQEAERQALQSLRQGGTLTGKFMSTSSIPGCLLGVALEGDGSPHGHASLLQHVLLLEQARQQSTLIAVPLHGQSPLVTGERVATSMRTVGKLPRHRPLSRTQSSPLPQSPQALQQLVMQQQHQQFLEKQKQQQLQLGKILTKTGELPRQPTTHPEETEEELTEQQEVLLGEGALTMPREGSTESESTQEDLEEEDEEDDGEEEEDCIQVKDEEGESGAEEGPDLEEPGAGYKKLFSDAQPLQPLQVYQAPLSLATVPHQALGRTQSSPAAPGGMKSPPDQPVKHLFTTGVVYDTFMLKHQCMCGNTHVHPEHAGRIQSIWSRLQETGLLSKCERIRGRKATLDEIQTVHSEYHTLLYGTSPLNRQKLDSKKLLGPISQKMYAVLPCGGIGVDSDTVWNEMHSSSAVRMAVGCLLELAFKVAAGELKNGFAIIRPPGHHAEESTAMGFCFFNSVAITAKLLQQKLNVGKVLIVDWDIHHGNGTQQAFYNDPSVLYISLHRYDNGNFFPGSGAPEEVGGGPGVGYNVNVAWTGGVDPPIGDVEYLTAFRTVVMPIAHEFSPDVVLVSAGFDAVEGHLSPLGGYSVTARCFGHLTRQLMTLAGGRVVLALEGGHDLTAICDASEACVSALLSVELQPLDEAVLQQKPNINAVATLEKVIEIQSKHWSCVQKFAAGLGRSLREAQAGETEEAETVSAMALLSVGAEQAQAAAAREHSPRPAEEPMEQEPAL
Cytochrome P450 2C9, sequence (P11712 whole entry): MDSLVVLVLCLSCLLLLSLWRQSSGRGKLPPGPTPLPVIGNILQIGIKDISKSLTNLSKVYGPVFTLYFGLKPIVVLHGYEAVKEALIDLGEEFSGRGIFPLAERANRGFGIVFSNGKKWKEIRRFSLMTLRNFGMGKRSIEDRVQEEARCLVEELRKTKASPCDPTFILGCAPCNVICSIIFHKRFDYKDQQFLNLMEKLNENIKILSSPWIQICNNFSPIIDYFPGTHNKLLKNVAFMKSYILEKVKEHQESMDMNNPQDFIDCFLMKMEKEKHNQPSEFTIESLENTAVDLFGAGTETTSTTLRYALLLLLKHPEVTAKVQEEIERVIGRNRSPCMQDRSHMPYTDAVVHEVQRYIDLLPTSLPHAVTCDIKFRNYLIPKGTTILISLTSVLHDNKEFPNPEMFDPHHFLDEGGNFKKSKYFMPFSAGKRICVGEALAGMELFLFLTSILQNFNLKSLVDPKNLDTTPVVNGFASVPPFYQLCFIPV

microsomal CLint at 1 µM [1]: < 1 µL/min/mg
microsomal CLint at 1 µM [2]: 3 µL/min/mg
IC50 (Histone deacetylase 1): 0.039 µM
microsomal CLint at 1 µM [3]: 13 µL/min/mg
Structure (SMILES): CCC(=O)CCCCC[C@H](NC(=O)C1CN(C)C1)c1ncc(-c2ccc3nccnc3c2)[nH]1
CC50 (HeLa): 1.2 µM

Structure (SMILES): O=C(CCCCCCC(=O)Nc1ccccc1)NO [VORINOSTAT]
CC50 (HCT-116 [4]): 1 µM
CC50 (G-401): 1 µM
CC50 (MCF7): 3 µM

microsomal CLint at 1 µM [1]: 15 µL/min/mg
clearance [5]: 59 mL/min/kg
microsomal CLint at 1 µM [2]: 6 µL/min/mg
IC50 (Histone deacetylase 1): 0.051 µM
microsomal CLint at 1 µM [3]: 38 µL/min/mg
Structure (SMILES): CCC(=O)CCCCC[C@H](NC(=O)CCN(C)C)c1ncc(-c2cc(OC)c3ccccc3n2)[nH]1
CC50 (HeLa): 0.5 µM

Structure (SMILES): CCC(=O)CCCCC[C@H](NC(=O)C1CN(C)C1)c1ncc(-c2cc3ccccc3nc2OC)[nH]1
MTD [6]: 10 mg/kg
Activity (HCT-116 [7]): Active
IC50 [8]: 680 µM
CC50 (U-937): 0.24 µM
bioavailability [9]: 73%
concentration at 24 h [10]: > 100 nM
CC50 (A549): 0.49 µM
Vd [11]: 7.9 L/kg
half-life [12]: 14 h
microsomal CLint at 1 µM [1]: 31 µL/min/mg
solubility [13]: 13 mg/mL (≈ 27.2 mM)
Activity (Mus musculus [14]): Non-toxic
clearance [15]: 4 mL/min/kg
IC50 (Histone deacetylase 7): > 10 µM
CC50 (A2780): 0.74 µM
concentration at 24 h [16]: > 100 nM
Activity (Cytochrome P450 3A4 [17]): Not Active
clearance [5]: 19 mL/min/kg
microsomal CLint at 1 µM [2]: 29 µL/min/mg
half-life [18]: 7 h
IC50 (Histone deacetylase 5): > 10 µM
CC50 (HeLa): 0.135 µM
CC50 (HCT-116 [4]; Homo sapiens, HCT-116, 72 h): 0.22 µM
CC50 (G-401; Homo sapiens, G-401, 72 h): 0.37 µM
Activity (Cytochrome P450 3A4 [19]): Not Active
CC50 (MCF7; Homo sapiens, MCF7, 72 h): 0.75 µM
microsomal CLint at 1 µM [3]: 29 µL/min/mg
Activity (Mus musculus [20]): Non-toxic
Activity (HCT-116 [21]): Active
bioavailability [22]: 31%
IC50 (Cytochrome P450 2C9): 5.5 µM
Vd [23]: 3.5 L/kg

microsomal CLint at 1 µM [1]: 19 µL/min/mg
microsomal CLint at 1 µM [2]: 20 µL/min/mg
IC50 (Histone deacetylase 1): 0.008 µM
microsomal CLint at 1 µM [3]: 27 µL/min/mg
Structure (SMILES): CCC(=O)CCCCC[C@H](NC(=O)C1CN(C)C1)c1ncc(-c2cnc3ccccc3n2)[nH]1
CC50 (HeLa): 0.43 µM

microsomal CLint at 1 µM [1]: 10 µL/min/mg
clearance [5]: 36 mL/min/kg
microsomal CLint at 1 µM [2]: 5 µL/min/mg
IC50 (Histone deacetylase 1): 0.03 µM
microsomal CLint at 1 µM [3]: 36 µL/min/mg
Structure (SMILES): CCC(=O)CCCCC[C@H](NC(=O)C1CCN(C)CC1)c1ncc(-c2cc(OC)c3ccccc3n2)[nH]1
CC50 (HeLa): 0.77 µM

microsomal CLint at 1 µM [1]: 140 µL/min/mg
microsomal CLint at 1 µM [2]: 170 µL/min/mg
IC50 (Histone deacetylase 1): 0.017 µM
microsomal CLint at 1 µM [3]: 190 µL/min/mg
Structure (SMILES): CCC(=O)CCCCC[C@H](NC(=O)CCN1CCN(C)CC1)c1ncc(-c2cc(OC)c3ccccc3n2)[nH]1
CC50 (HeLa): 0.39 µM

microsomal CLint at 1 µM [1]: 29 µL/min/mg
microsomal CLint at 1 µM [2]: 18 µL/min/mg
IC50 (Histone deacetylase 1): 0.008 µM
microsomal CLint at 1 µM [3]: 210 µL/min/mg
Structure (SMILES): CCC(=O)CCCCC[C@H](NC(=O)C1CCN(C)CC1)c1ncc(-c2cc3ccccc3cn2)[nH]1
CC50 (HeLa): 0.022 µM
